Laboratory results from US8354422B2, “Pyrimidine inhibitors of kinase activity” (Abbott Laboratories Inc., priority 2009, dated 2013).

Molecular target: T1, C-terminal GST-tagged, recombinant, human IGF-1R, amino acids 954-1367 (Homo sapiens, UniProt P08069)
T1 construct: human IGF-1R, amino acids 954-1367 expressed by baculovirus in Sf21 cells; GST (C); purchased Cell Signaling Technology; host or cells: baculovirus in Sf21 cells
Experiment: IGF-1R kinase activity, homogenous time-resolved fluorescence (HTRF) in vitro kinase assay
Type: biochemical
Details: IGF-1R kinase HTRF assay, ATP 50 μM, biotinylated peptide substrate 0.5 μM, 60 minutes at room temperature
Experimental: IGF-1R kinase activity was assayed by a homogenous time-resolved fluorescence (HTRF) in vitro kinase assay (Mathis, G., HTRF(R) Technology. J Biomol Screen, 1999. 4(6): p. 309-314). Specifically, 10 μL C-terminal GST-tagged, recombinant, human IGF-1R, amino acids 954-1367 expressed by baculovirus in Sf21 cells (Cell Singaling Technology) was mixed with 10 μL inhibitor (various concentrations, 2% final DMSO) and 10 μL of ATP (50 μM final concentration) in reaction buffer (50 mM HEPES, pH […], 2 mM MnCl2, 0.1% BSA and 1 mM DTT, 40 μL final volume). The reaction was initiated by addition of 10 μL of biotinylated peptide substrate (Biotin-Ahx-[…], 0.5 μM final concentration) in a black 384-well plate (Packard). After 60 minutes incubation at room temperature, the reaction was quenched by addition of 60 μL stop/revelation buffer to give 30 mM EDTA, 1 μg/mL streptavidin-APC (Prozyme), 50 ng/mL anti-phosphotyrosine mAb PT66-K Europium Cryptate, 30 mM HEPES, pH 7.5, 120 mM KF, 0.005% Tween-20, 0.05% BSA). The quenched reaction was allowed to stand at room temperature for 1 hour and then read in a time-resolved fluorescence detector (Envision, Perkin Elmer) at 615 nm and 665 nm simultaneously. The ratio between the signal of 615 nm and 665 nm was used in the calculation of the IC50.

T1 sequence (P08069 954-1367): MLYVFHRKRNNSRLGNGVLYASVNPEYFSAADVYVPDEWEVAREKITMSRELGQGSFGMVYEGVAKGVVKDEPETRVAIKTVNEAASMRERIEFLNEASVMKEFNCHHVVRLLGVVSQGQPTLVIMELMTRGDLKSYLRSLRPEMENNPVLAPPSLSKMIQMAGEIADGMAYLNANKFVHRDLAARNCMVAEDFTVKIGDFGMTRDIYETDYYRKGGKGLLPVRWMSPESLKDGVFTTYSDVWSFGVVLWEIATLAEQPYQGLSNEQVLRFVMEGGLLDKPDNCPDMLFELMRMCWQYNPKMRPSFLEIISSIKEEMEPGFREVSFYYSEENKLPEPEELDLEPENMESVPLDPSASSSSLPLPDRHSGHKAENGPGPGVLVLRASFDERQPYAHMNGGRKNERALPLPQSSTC

IC50 | Structure (SMILES)
101 to 500 nM | COc1ccc(S(C)(=O)=O)cc1Nc1nccc(-c2c(-c3ccc(OCc4ccccc4)cc3)nc3ccccn23)n1 [Example 35, 4-{2-[4-(benzyloxy)phenyl]imidazo[1,2-a]pyridin-3-yl}-N-[2-methoxy-5-(methylsulfonyl)phenyl]pyrimidin-2-amine]
101 to 500 nM | COc1cc(-c2nc3ccccn3c2-c2ccnc(Nc3cnn(CCN(C)C)c3)n2)ccc1OCc1ccccc1 [Example 43, 4-{2-[4-(benzyloxy)-3-methoxyphenyl]imidazo[1,2-a]pyridin-3-yl}-N-{1-[2-(dimethylamino)ethyl]-1H-pyrazol-4-yl}pyrimidin-2-amine]
101 to 500 nM | COc1cc(NCC(=O)O)ccc1Nc1nccc(-c2c(-c3ccc(OCc4ccccc4)c(OC)c3)nc3ccccn23)n1 [Example 53, N-{4-[(4-{2-[4-(benzyloxy)-3-methoxyphenyl]imidazo[1,2-a]pyridin-3-yl}pyrimidin-2-yl)amino]-3-methoxyphenyl}glycine]
> 1000 nM | Fc1ccc(Nc2nccc(-c3c(-c4ccc(OCc5ccccc5)cc4)nc4ccccn34)n2)cc1 [Example 28, 4-{2-[4-(benzyloxy)phenyl]imidazo[1,2-a]pyridin-3-yl}-N-(4-fluorophenyl)pyrimidin-2-amine]
101 to 500 nM | COc1cc(N2CCC(N3CCN(C)CC3)CC2)ccc1Nc1nccc(-c2c(-c3ccc(OCc4ccccc4)cc3)nc3ccccn23)n1 [Example 13, 4-{2-[4-(benzyloxy)phenyl]imidazo[1,2-a]pyridin-3-yl}-N-{2-methoxy-4-[4-(4-methylpiperazin-1-yl)piperidin-1-yl]phenyl}pyrimidin-2-amine]
< 25 nM | CN(C)CCc1cccc(Nc2nccc(-c3c(-c4ccc(OCc5ccccc5)cc4)nc4ccccn34)n2)c1 [Example 1, 4-{2-[4-(benzyloxy)phenyl]imidazo[1,2-a]pyridin-3-yl}-N-{3-[2-(dimethylamino)ethyl]phenyl}pyrimidin-2-amine]
25 to 100 nM | COc1cc(-c2nc3ccccn3c2-c2ccnc(Nc3cccc(CCN(C)CCO)c3)n2)ccc1OCc1ccccc1 [Example 38, 2-[(2-{3-[(4-{2-[4-(benzyloxy)-3-methoxyphenyl]imidazo[1,2-a]pyridin-3-yl}pyrimidin-2-yl)amino]phenyl}ethyl)(methyl)amino]ethanol]
101 to 500 nM | COc1ccccc1COc1ccc(-c2nc3ccccn3c2-c2ccnc(Nc3cccc(CCN(C)C)c3)n2)cc1 [Example 16, N-{3-[2-(dimethylamino)ethyl]phenyl}-4-(2-{4-[(2-methoxybenzyl)oxy]phenyl}imidazo[1,2-a]pyridin-3-yl)pyrimidin-2-amine]
101 to 500 nM | COc1cc(N2CCOCC2)ccc1Nc1nccc(-c2c(-c3ccc(OCc4ccccc4)cc3)nc3ccccn23)n1 [Example 2, 4-{2-[4-(benzyloxy)phenyl]imidazo[1,2-a]pyridin-3-yl}-N-(2-methoxy-4-morpholin-4-ylphenyl)pyrimidin-2-amine]
101 to 500 nM | CC(Oc1ccc(-c2nc3ccccn3c2-c2ccnc(Nc3cccc(CCN(C)C)c3)n2)cc1)c1ccccc1 (stereo not drawn) [Example 21, N-{3-[2-(dimethylamino)ethyl]phenyl}-4-{2-[4-(1-phenylethoxy)phenyl]imidazo[1,2-a]pyridin-3-yl}pyrimidin-2-amine]
25 to 100 nM | COc1ccc(CCN(C)C)cc1Nc1nccc(-c2c(-c3ccc(OCc4ccccc4)c(OC)c3)nc3ccccn23)n1 [Example 59, 4-{2-[4-(benzyloxy)-3-methoxyphenyl]imidazo[1,2-a]pyridin-3-yl}-N-{5-[2-(dimethylamino)ethyl]-2-methoxyphenyl}pyrimidin-2-amine]
< 25 nM | COc1cc(C2CCNCC2)ccc1Nc1nccc(-c2c(-c3ccc(OCc4ccccc4)c(OC)c3)nc3ccccn23)n1 [Example 57, 4-{2-[4-(benzyloxy)-3-methoxyphenyl]imidazo[1,2-a]pyridin-3-yl}-N-(2-methoxy-4-piperidin-4-ylphenyl)pyrimidin-2-amine]
25 to 100 nM | COc1cc(N2CCC(N(C)C)CC2)ccc1Nc1nccc(-c2c(-c3ccc(OCc4ccccc4)c(OC)c3)nc3ccccn23)n1 [Example 33, 4-{2-[4-(benzyloxy)-3-methoxyphenyl]imidazo[1,2-a]pyridin-3-yl}-N-{4-[4-(dimethylamino)piperidin-1-yl]-2-methoxyphenyl}pyrimidin-2-amine]
> 1000 nM | CS(=O)(=O)c1cccc(Nc2nccc(-c3c(-c4ccc(OCc5ccccc5)cc4)nc4ccccn34)n2)c1 [Example 4, 4-{2-[4-(benzyloxy)phenyl]imidazo[1,2-a]pyridin-3-yl}-N-[3-(methylsulfonyl)phenyl]pyrimidin-2-amine]
101 to 500 nM | COc1cc(N(C)C)ccc1Nc1nccc(-c2c(-c3ccc(OCc4ccccc4)c(OC)c3)nc3ccccn23)n1 [Example 42, N^1-(4-{2-[4-(benzyloxy)-3-methoxyphenyl]imidazo[1,2-a]pyridin-3-yl}pyrimidin-2-yl)-2-methoxy-N^4,N^4-dimethylbenzene-1,4-diamine]
101 to 500 nM | COc1ccc(CN(C)CCO)cc1Nc1nccc(-c2c(-c3ccc(OCc4ccccc4)c(OC)c3)nc3ccccn23)n1 [Example 64, 2-[{3-[(4-{2-[4-(benzyloxy)-3-methoxyphenyl]imidazo[1,2-a]pyridin-3-yl}pyrimidin-2-yl)amino]-4-methoxybenzyl}(methyl)amino]ethanol]
101 to 500 nM | CN(C)CC(=O)Nc1cccc(Nc2nccc(-c3c(-c4ccc(OCc5ccccc5)cc4)nc4ccccn34)n2)c1 [Example 67, N^1-{3-[(4-{2-[4-(benzyloxy)phenyl]imidazo[1,2-a]pyridin-3-yl}pyrimidin-2-yl)amino]phenyl}-N^2,N^2-dimethylglycinamide]
101 to 500 nM | CN(C)CCc1cccc(Nc2nccc(-c3c(-c4ccc(OCc5ccc(F)cc5)cc4)nc4ccccn34)n2)c1 [Example 20, N-{3-[2-(dimethylamino)ethyl]phenyl}-4-(2-{4-[(4-fluorobenzyl)oxy]phenyl}imidazo[1,2-a]pyridin-3-yl)pyrimidin-2-amine]
101 to 500 nM | CN(C)CCc1cccc(Nc2nccc(-c3c(-c4ccc(OCc5cccc(F)c5)cc4)nc4ccccn34)n2)c1 [Example 19, N-{3-[2-(dimethylamino)ethyl]phenyl}-4-(2-{4-[(3-fluorobenzyl)oxy]phenyl}imidazo[1,2-a]pyridin-3-yl)pyrimidin-2-amine]
25 to 100 nM | COc1cc(-c2nc3ccccn3c2-c2ccnc(Nc3cccc(CCN4CCCC4)c3)n2)ccc1OCc1ccccc1 [Example 24, 4-{2-[4-(benzyloxy)-3-methoxyphenyl]imidazo[1,2-a]pyridin-3-yl}-N-[3-(2-pyrrolidin-1-ylethyl)phenyl]pyrimidin-2-amine]
101 to 500 nM | COc1cc(NCC(C)(C)O)ccc1Nc1nccc(-c2c(-c3ccc(OCc4ccccc4)c(OC)c3)nc3ccccn23)n1 [Example 45, 1-({4-[(4-{2-[4-(benzyloxy)-3-methoxyphenyl]imidazo[1,2-a]pyridin-3-yl}pyrimidin-2-yl)amino]-3-methoxyphenyl}amino)-2-methylpropan-2-ol]
501 to 1000 nM | Cc1cc(-c2nc3ccccn3c2-c2ccnc(Nc3cccc(CCN(C)C)c3)n2)ccc1OCc1ccccc1 [Example 68, 4-{2-[4-(benzyloxy)-3-methylphenyl]imidazo[1,2-a]pyridin-3-yl}-N-{3-[2-(dimethylamino)ethyl]phenyl}pyrimidin-2-amine]
101 to 500 nM | COc1cc(-c2nc3ccccn3c2-c2ccnc(Nc3ccc(N4CCS(=O)(=O)CC4)cc3)n2)ccc1OCc1ccccc1 [Example 32, 4-{2-[4-(benzyloxy)-3-methoxyphenyl]imidazo[1,2-a]pyridin-3-yl}-N-[4-(1,1-dioxidothiomorpholin-4-yl)phenyl]pyrimidin-2-amine]
101 to 500 nM | Cc1cc(OCc2ccccc2)ccc1-c1nc2ccccn2c1-c1ccnc(Nc2cccc(CCN(C)C)c2)n1 [Example 10, 4-{2-[4-(benzyloxy)-2-methylphenyl]imidazo[1,2-a]pyridin-3-yl}-N-{3-[2-(dimethylamino)ethyl]phenyl}pyrimidin-2-amine]
25 to 100 nM | CN(C)CCc1cccc(Nc2nccc(-c3c(-c4ccc(OCc5ccccc5)cc4F)nc4ccccn34)n2)c1 [Example 8, 4-{2-[4-(benzyloxy)-2-fluorophenyl]imidazo[1,2-a]pyridin-3-yl}-N-{3-[2-(dimethylamino)ethyl]phenyl}pyrimidin-2-amine]
101 to 500 nM | COc1ccc(N2CCSCC2)cc1Nc1nccc(-c2c(-c3ccc(OCc4ccccc4)c(OC)c3)nc3ccccn23)n1 [Example 73, 4-{2-[4-(benzyloxy)-3-methoxyphenyl]imidazo[1,2-a]pyridin-3-yl}-N-(2-methoxy-5-thiomorpholin-4-ylphenyl)pyrimidin-2-amine]
25 to 100 nM | COc1cc(-c2nc3ccccn3c2-c2ccnc(Nc3cccc(CN4CCC(O)C4)c3)n2)ccc1OCc1ccccc1 (stereo not drawn) [Example 70, 1-{3-[(4-{2-[4-(benzyloxy)-3-methoxyphenyl]imidazo[1,2-a]pyridin-3-yl}pyrimidin-2-yl)amino]benzyl}pyrrolidin-3-ol]
